The source made the active and inactive calls. No cut-off for these calls is given here.
Key:
Escherichia coli = assay: Antibacterial activity against Escherichia coli assessed as reduction in bacterial cell viability at 250 to 500 uM incubated for 24 hrs by CFU assay; assay type: functional, organism-based; settings: dose 250-500 µM
Bacillus subtilis = assay: Antibacterial activity against Bacillus subtilis assessed as reduction in bacterial cell viability at 250 to 500 uM incubated for 24 hrs by CFU assay; assay type: functional, organism-based; settings: dose 250-500 µM
[1] = Prodrug conversion in BALB/c mouse xenografted with human hypoxic A549 cells assessed as rhodamine release by measuring increase in fluorescence intensity in tumor at 2.5 mg/kg,iv and measured after 29 hrs by fluorescence imaging analysis; assay type: ADME, organism-based; settings: in vivo
[2] = Prodrug conversion in Bacillus subtilis assessed as nitroreductase mediated drug degradation by measuring increase in fluorescence intensity at 10 uM by fluorescence analysis; assay type: ADME
[3] = Prodrug conversion in Escherichia coli assessed as nitroreductase mediated drug degradation by measuring increase in fluorescence intensity at 10 uM by fluorescence analysis relative to control; assay type: ADME
[4] = Prodrug conversion in PBS at pH 7.4 assessed as Escherichia coli nitroreductase mediated drug degradation by measuring increase in maximum absorption at 522nm at 5 uM in presence of NADH as cofactor by UV-Vis spectroscopic analysis; assay type: ADME; settings: isolated protein, pH 7.4, 5 µM
[5] = Biodistribution in tumor of BALB/c mouse xenografted with human hypoxic A549 cells assessed as drug uptake at 2.5 mg/kg,iv and measured after 29 hrs by fluorescence imaging analysis; assay type: ADME, organism-based, Neoplasm; settings: in vivo
[6] = Prodrug conversion in pH 4 to 8 buffer assessed as Escherichia coli nitroreductase mediated drug degradation by measuring fluorescence intensity at 10 uM incubated for 30 mins by fluorescence spectroscopic analysis; assay type: ADME; settings: isolated protein, pH 4, 0.5 h
[7] = Prodrug conversion in human serum assessed as NO mediated drug degradation by measuring fluorescence production at 10 uM incubated for 30 mins by fluorescence spectroscopic analysis; assay type: ADME, cell-free; settings: 0.5 h
[8] = Prodrug conversion in human serum assessed as trypsin mediated drug degradation by measuring fluorescence production at 10 uM incubated for 30 mins by fluorescence spectroscopic analysis; assay type: ADME, cell-free; settings: 0.5 h
[9] = Prodrug conversion in PBS at 7.4 assessed as Escherichia coli nitroreductase mediated drug degradation by measuring norfloxacin metabolite formation at 10 uM incubated for 30 mins by HRMS analysis; assay type: ADME; settings: isolated protein, pH 7.4, 0.5 h
[10] = Prodrug conversion in human serum assessed as GSH mediated drug degradation by measuring fluorescence production at 10 uM incubated for 30 mins by fluorescence spectroscopic analysis; assay type: ADME, cell-free; settings: 0.5 h
[11] = Biodistribution in liver of BALB/c mouse xenografted with human hypoxic A549 cells assessed as drug uptake at 2.5 mg/kg,iv and measured after 29 hrs by fluorescence imaging analysis; assay type: ADME, organism-based; settings: in vivo
[12] = Prodrug conversion in tumor of BALB/c mouse xenografted with human hypoxic A549 cells assessed as fold increase in fluorescence intensity at 2.5 mg/kg,iv and measured after 29 hrs by fluorescence imaging analysis relative to control; assay type: ADME, organism-based, Neoplasm; settings: in vivo
[13] = Prodrug conversion in human serum assessed as pepsin mediated drug degradation by measuring fluorescence production at 10 uM incubated for 30 mins by fluorescence spectroscopic analysis; assay type: ADME, cell-free; settings: 0.5 h
[14] = Prodrug conversion in PBS at 7.4 assessed as Escherichia coli nitroreductase mediated drug degradation by measuring increase in fluorescence emission at 545nm at 10 uM in presence of NADH as cofactor by fluorescence spectroscopic analysis; assay type: ADME; settings: isolated protein, pH 7.4, 10 µM
[15] = Prodrug conversion in human serum assessed as ascorbic acid mediated drug degradation by measuring fluorescence production at 10 uM incubated for 30 mins by fluorescence spectroscopic analysis; assay type: ADME, cell-free; settings: 0.5 h
[16] = Prodrug conversion in Bacillus subtilis assessed as nitroreductase mediated drug degradation by measuring increase in fluorescence intensity at 10 uM in presence of dicoumarol by fluorescence analysis; assay type: ADME
[17] = Prodrug conversion in human serum assessed as glutathione mediated drug degradation by measuring fluorescence production at 10 uM incubated for 30 mins by fluorescence spectroscopic analysis; assay type: ADME, cell-free; settings: 0.5 h
[18] = Biodistribution in kidney of BALB/c mouse xenografted with human hypoxic A549 cells assessed as drug uptake at 2.5 mg/kg,iv and measured after 29 hrs by fluorescence imaging analysis; assay type: ADME, organism-based; settings: in vivo
[19] = Prodrug conversion in human serum assessed as FADH2 mediated drug degradation by measuring fluorescence production at 10 uM incubated for 30 mins by fluorescence spectroscopic analysis; assay type: ADME, cell-free; settings: 0.5 h
[20] = Prodrug conversion in human serum assessed as glutamic acid mediated drug degradation by measuring fluorescence production at 10 uM incubated for 30 mins by fluorescence spectroscopic analysis; assay type: ADME, cell-free; settings: 0.5 h
[21] = Prodrug conversion in human serum assessed as hydroxyl radical mediated drug degradation by measuring fluorescence production at 10 uM incubated for 30 mins by fluorescence spectroscopic analysis; assay type: ADME, cell-free; settings: 0.5 h
[22] = Prodrug conversion in Escherichia coli assessed as nitroreductase mediated drug degradation by measuring fold increase in fluorescence intensity at 10 uM by fluorescence analysis relative to control; assay type: ADME
[23] = Biodistribution in tumor of BALB/c mouse xenografted with human hypoxic A549 cells assessed as fold increase in drug uptake at 2.5 mg/kg,iv and measured after 29 hrs by fluorescence imaging analysis relative to control; assay type: ADME, organism-based, Neoplasm; settings: in vivo
[24] = Prodrug conversion in human serum assessed as Fe3+ ion mediated drug degradation by measuring fluorescence production at 10 uM incubated for 30 mins by fluorescence spectroscopic analysis; assay type: ADME, cell-free; settings: 0.5 h
[25] = Prodrug conversion in human serum assessed as HNO mediated drug degradation by measuring fluorescence production at 10 uM incubated for 30 mins by fluorescence spectroscopic analysis; assay type: ADME, cell-free; settings: 0.5 h
[26] = Prodrug conversion in human serum assessed as tyrosinase mediated drug degradation by measuring fluorescence production at 10 uM incubated for 30 mins by fluorescence spectroscopic analysis; assay type: ADME, cell-free; settings: 0.5 h
[27] = Biodistribution in heart of BALB/c mouse xenografted with human hypoxic A549 cells assessed as drug uptake at 2.5 mg/kg,iv and measured after 29 hrs by fluorescence imaging analysis; assay type: ADME, organism-based; settings: in vivo
[28] = Prodrug conversion in BALB/c mouse xenografted with human hypoxic A549 cells assessed as rhodamine release by measuring increase in fluorescence intensity in body at 2.5 mg/kg,iv and measured upto 29 hrs by fluorescence imaging analysis; assay type: ADME, organism-based; settings: in vivo
[29] = Prodrug conversion in human serum assessed as arginine mediated drug degradation by measuring fluorescence production at 10 uM incubated for 30 mins by fluorescence spectroscopic analysis; assay type: ADME, cell-free; settings: 0.5 h
[30] = Prodrug conversion in human serum assessed as Fe2+ ion mediated drug degradation by measuring fluorescence production at 10 uM incubated for 30 mins by fluorescence spectroscopic analysis; assay type: ADME, cell-free; settings: 0.5 h
[31] = Biodistribution in spleen of BALB/c mouse xenografted with human hypoxic A549 cells assessed as drug uptake at 2.5 mg/kg,iv and measured after 29 hrs by fluorescence imaging analysis; assay type: ADME, organism-based; settings: in vivo
[32] = Prodrug conversion in human serum assessed as […] mediated drug degradation by measuring fluorescence production at 10 uM incubated for 30 mins by fluorescence spectroscopic analysis; assay type: ADME, cell-free; settings: 0.5 h
[33] = Prodrug conversion in PBS at 7.4 assessed as Escherichia coli nitroreductase mediated drug degradation by measuring rhodamine metabolite formation at 10 uM incubated for 30 mins by HRMS analysis; assay type: ADME; settings: isolated protein, pH 7.4, 0.5 h
[34] = Prodrug conversion in human serum assessed as NO3- ion mediated drug degradation by measuring fluorescence production at 10 uM incubated for 30 mins by fluorescence spectroscopic analysis; assay type: ADME, cell-free; settings: 0.5 h
[35] = Prodrug conversion in human serum assessed as Zn2+ ion mediated drug degradation by measuring fluorescence production at 10 uM incubated for 30 mins by fluorescence spectroscopic analysis; assay type: ADME, cell-free; settings: 0.5 h
[36] = Prodrug conversion in PBS at pH 7.4 assessed as Escherichia coli nitroreductase mediated drug degradation by measuring change in fluorescence intensity at 545nm at 10 uM incubated for 20 mins by fluorescence spectroscopic analysis; assay type: ADME; settings: isolated protein, pH 7.4, 20 min
[37] = Biodistribution in stomach of BALB/c mouse xenografted with human hypoxic A549 cells assessed as drug uptake at 2.5 mg/kg,iv and measured after 29 hrs by fluorescence imaging analysis; assay type: ADME, organism-based; settings: in vivo
[38] = Prodrug conversion in BALB/c mouse xenografted with human hypoxic A549 cells assessed as rhodamine release by measuring fold increase in fluorescence intensity in tumor at 2.5 mg/kg,iv and measured after 17 hrs by fluorescence imaging analysis relative to control; assay type: ADME, organism-based; settings: in vivo
[39] = Prodrug conversion in human serum assessed as serine mediated drug degradation by measuring fluorescence production at 10 uM incubated for 30 mins by fluorescence spectroscopic analysis; assay type: ADME, cell-free; settings: 0.5 h
[40] = Prodrug conversion in Escherichia coli assessed as nitroreductase mediated drug degradation by measuring increase in fluorescence intensity at 10 uM in presence of dicoumarol by fluorescence analysis; assay type: ADME
[41] = Prodrug conversion in human serum assessed as cysteine mediated drug degradation by measuring fluorescence production at 10 uM incubated for 30 mins by fluorescence spectroscopic analysis; assay type: ADME, cell-free; settings: 0.5 h
[42] = Prodrug conversion in human serum assessed as Cu2+ ion mediated drug degradation by measuring fluorescence production at 10 uM incubated for 30 mins by fluorescence spectroscopic analysis; assay type: ADME, cell-free; settings: 0.5 h
[43] = Prodrug conversion in BALB/c mouse xenografted with human hypoxic A549 cells assessed as rhodamine release by measuring increase in fluorescence intensity in tumor at 2.5 mg/kg,iv and measured after 2.5 hrs by fluorescence imaging analysis; assay type: ADME, organism-based; settings: in vivo
[44] = Prodrug conversion in human serum assessed as H2O2 mediated drug degradation by measuring fluorescence production at 10 uM incubated for 30 mins by fluorescence spectroscopic analysis; assay type: ADME, cell-free; settings: 0.5 h
[45] = Biodistribution in intestine of BALB/c mouse xenografted with human hypoxic A549 cells assessed as drug uptake at 2.5 mg/kg,iv and measured after 29 hrs by fluorescence imaging analysis; assay type: ADME, organism-based; settings: in vivo

SMILES: CCn1cc(C(=O)O)c(=O)c2cc(F)c(N3CCNCC3)cc21
- Activity (Escherichia coli): Active

SMILES: CCN(CC)c1ccc2c(c1)Oc1cc(OC(=O)OCc3cc(C)cc(COC(=O)c4cn(CC)c5cc(N6CCNCC6)c(F)cc5c4=O)c3OCc3ccccc3)ccc1C21OC(=O)c2ccccc21 (centres undefined)
- Activity (Bacillus subtilis): Dose-Dependent Effect
- Drug metabolism [1]: Metabolite_Notdetected
- Drug metabolism [2]: Metabolite_Notdetected
- Activity (Escherichia coli): Active
- Drug metabolism [3]: Metabolite_Notdetected
- Drug metabolism [4]: Metabolite_Notdetected
- Drug uptake [5]: Not Active

SMILES: CCN(CC)c1ccc2c(c1)Oc1cc(OC(=O)OCc3cc(C)cc(COC(=O)c4cn(CC)c5cc(N6CCNCC6)c(F)cc5c4=O)c3OCc3ccc([N+](=O)[O-])cc3)ccc1C21OC(=O)c2ccccc21 (centres undefined)
- Drug metabolism [6]: Metabolite_Detected
- Drug metabolism [7]: Metabolite_Notdetected
- Drug metabolism [8]: Metabolite_Notdetected
- Activity (Bacillus subtilis): Dose-Dependent Effect
- Drug metabolism [9]: Metabolite_Detected
- Drug metabolism [10]: Metabolite_Notdetected
- Drug metabolism [1]: Metabolite_Detected
- Drug uptake [11]: Not Active
- fold change (FC) [12]: 4.5
- Drug metabolism [13]: Metabolite_Notdetected
- Drug metabolism [14]: Metabolite_Detected
- Drug metabolism [15]: Metabolite_Notdetected
- Drug metabolism [16]: Metabolite_Notdetected
- Drug metabolism [17]: Metabolite_Notdetected
- Drug uptake [18]: Not Active
- Drug metabolism [19]: Metabolite_Notdetected
- Drug metabolism [20]: Metabolite_Notdetected
- Drug metabolism [21]: Metabolite_Notdetected
- fold change (FC) [22]: 3.5
- fold change (FC) [23]: 4
- Drug metabolism [24]: Metabolite_Notdetected
- Drug metabolism [2]: Metabolite_Detected
- Drug metabolism [25]: Metabolite_Notdetected
- Activity (Escherichia coli): Active
- Drug metabolism [26]: Metabolite_Notdetected
- Drug uptake [27]: Not Active
- Drug metabolism [28]: Metabolite_Detected
- Drug metabolism [29]: Metabolite_Notdetected
- Drug metabolism [30]: Metabolite_Notdetected
- Drug uptake [31]: Not Active
- Drug metabolism [32]: Metabolite_Notdetected
- Drug metabolism [33]: Metabolite_Detected
- Drug metabolism [34]: Metabolite_Notdetected
- Drug metabolism [35]: Metabolite_Notdetected
- Drug metabolism [36]: Metabolite_Detected
- Drug uptake [37]: Active
- fold change (FC) [38]: 4.1
- Drug metabolism [4]: Metabolite_Detected
- Drug metabolism [39]: Metabolite_Notdetected
- Drug metabolism [40]: Metabolite_Notdetected
- Drug metabolism [41]: Metabolite_Notdetected
- Drug metabolism [42]: Metabolite_Notdetected
- Drug uptake [5]: Active
- Drug metabolism [43]: Metabolite_Detected
- Drug metabolism [44]: Metabolite_Notdetected
- Drug uptake [45]: Active
